Our source for the EC50 values is patent US20230002324A1, “NAPHTHOQUINONE DERIVATIVES FOR TREATMENT OF OXIDATIVE STRESS DISORDERS” (PTC THERAPEUTICS, INC., priority 2019, published 2023).

For orientation: EC50 means the concentration at which the effect is half-maximal.

One experiment concerns normal human fibroblasts (NHF, GM21811). The experiment in a line: NHF GM21811 RSL3 challenge cell survival (rescue) assay. In kind it is cell-based. Particulars: Fibroblast, NHF cells, RSL3 2 micromolar, 48 h, Cell Titer Glo, read-out: NHF GM21811 RSL3 Survival EC50. An excerpt: (§1) In neuronal cells excess extracellular glutamate inhibits the cystine/glutamate antiporter leading to intracellular cysteine depletion, GSH depletion, reactive oxygen species (ROS) production and cell death, a phenomenon termed oxidative glutamate toxicity, oxytosis, or ferroptosis. […] Q7 cells (ST HDH Q7/7; immortalized mouse striatal cells) challenged with cystine-free media or the selective, irreversible GPX4 inhibitor, methyl (1S,3R)-2-(2-chloroacetyl)-1-(4-(methoxycarbonyl)phenyl)-2,3,4,9-tetrahydro-1H-pyrido[3,4-b]indole-3-carboxylate (hereafter referred to as RSL3), recapitulate this phenotype, as do normal human fibroblasts (NHF) challenged with RSL3. An initial screen was performed to identify compounds effective in rescuing Q7 and/or NHF cells from death resulting from cystine deprivation or RSL3 challenge. This method is further described in Yonezawa et al., J. Neurochem 67, 566-573 (1996), Li et al., J Neurosci., 23, 5816-5826 (2003), Yang and Stockwell, Chem Biol., 15: 234-45 (2008), and Yang et al., Cell 156, 317-331 (2014). See also Hinman A, Holst C R, Latham J C, et al. Vitamin E hydroquinone is an endogenous regulator of ferroptosis via redox control of 15-lipoxygenase. PLoS One. 2018; 13(8):e0201369. Published 2018 Aug. 15. doi:10.1371/journal.pone.0201369; and Kahn-Kirby A H, Amagata A, Maeder C I, et al. Targeting ferroptosis: A novel therapeutic strategy for the treatment of mitochondrial disease-related epilepsy. PLoS One. 2019; 14(3):e0214250. Published 2019 Mar. 28. doi:10.1371/journal.pone.0214250.
(§2) DMEM (Catalog no. 11995-040), DMEM without Cystine (Catalog no. 21013-024), DMEM without Glucose (Catalog A1443001), PBS (Phosphate buffered saline), Penicillin-streptomycin mix, L-Glutamine, Glucose, Phenol Red, and Pyruvate were purchased from ThermoFisher Scientific (Gibco). Fetal Bovine Serum was obtained from Mediatech, Inc., or Sigma Aldrich. Mouse striatum derived ST HDH Q7/7 (Q7) and normal human skin fibroblast (NHF, product number GM21811) cells were obtained from the Coriell Institute. Methionine and Vitamin K2 were purchased from Sigma Aldrich. RSL3 was synthesized as previously described (see e.g. US Patent Publication US2010/0081654). Cell Titer Glo 2.0 was purchased from Promega. Q7 cell culture medium (Q7 growth medium) was made by combining 50 mL Fetal Bovine Serum, 100 U/mL penicillin, and 100 microgram/mL streptomycin; DMEM was added to make the volume up to 500 mL. Assay medium for the Cystine Deprivation assay was prepared by combining 50 mL Fetal Bovine Serum, 100 U/mL penicillin, 100 microgram/mL streptomycin, 4 mM L-Glutamine, 1 mM Pyruvate and 30 mg/L Methionine; DMEM without Cystine was added to make the volume up to 500 mL. NHF cell culture medium (NHF growth medium) was made by combining 50 mL Fetal Bovine Serum, 100 U/mL penicillin, 100 microgram/mL streptomycin, 2.8 mL 20% Glucose solution (final concentration 6 mM), L-glutamine (final concentration 2 mM), phenol red (final concentration 15 mg/L); DMEM without Glucose was added to make the volume up to 500 mL. Assay medium for the RSL3 challenge assay was identical to Growth medium. While not in use during the course of the experiments, these solutions were stored at 4° C. The cells were grown in 150-cm^2 tissue culture-treated flasks. Every third or fourth day, the cells were sub-cultured by trypsinization and re-seeded at a cell density of 600,000 (Q7) or 300,000 (NHF) cells per flask.
(§3) Q7 or NHF cells were cultured routinely as described herein. For 384-well cell survival assays, cells were seeded in clear bottom, black wall 384-well tissue culture-treated polystyrene plates by re-suspending a cell suspension at a density of 50,000 cells/mL in growth medium, then dispensing 60 microliters of cell suspension per well using either an electronic multichannel pipette or a Multidrop™ Combi Reagent Dispenser (ThermoFisher Scientific), corresponding to 3,000 cells/well. […]
In general terms: ATP-based viability assays read luminescence as a measure of living cells.
For `CC1=C(Cc2ccc(C(F)(F)F)cn2)C(=O)c2cc(C)ccc2C1=O` [Example 42, 2,6-dimethyl-3-((5-(trifluoromethyl)pyridin-2-yl)methyl)naphthalene-1,4-dione], the EC50 was below 50 nM.
On the same count and under the same terms, as for `CC1=C(Cc2ccc(C(F)(F)F)cn2)C(=O)c2ccc(F)cc2C1=O` [Example 44, 6-fluoro-3-methyl-2-((5-(trifluoromethyl)pyridin-2-yl)methyl)naphthalene-1,4-dione], the figure is below 50 nM; as for `CCC1=C(Cc2cc(C(F)(F)F)c(OC)cn2)C(=O)c2c(F)ccc(F)c2C1=O` [Example 134, 2-ethyl-5,8-difluoro-3-((5-methoxy-4-(trifluoromethyl)pyridin-2-yl)methyl)naphthalene-1,4-dione], below 50 nM; as for `CCC1=C(Cc2cc(C)c(F)cn2)C(=O)c2c(F)ccc(F)c2C1=O` [Example 135, 2-ethyl-5,8-difluoro-3-((5-fluoro-4-methylpyridin-2-yl)methyl)naphthalene-1,4-dione], below 50 nM.
`CCC1=C(Cc2ccc(C(F)F)cn2)C(=O)c2c(F)ccc(F)c2C1=O` [Example 136, 2-((5-(difluoromethyl)pyridin-2-yl)methyl)-3-ethyl-5,8-difluoronaphthalene-1,4-dione]: the concentration giving a half-maximal response (EC50) was below 50 nM.
Same read-out and setting: as for `CCC1=C(Cc2ccc(C(C)(F)F)cn2)C(=O)c2ccccc2C1=O` [Example 137, 2-((5-(1,1-difluoroethyl)pyridin-2-yl)methyl)-3-ethylnaphthalene-1,4-dione], the figure is below 50 nM.
On to `CCC1=C(Cc2ccc(OC(F)(F)F)cn2)C(=O)c2c(F)ccc(F)c2C1=O` [Example 138, 2-ethyl-5,8-difluoro-3-((5-(trifluoromethoxy)pyridin-2-yl)methyl)naphthalene-1,4-dione], for which the 50% effective concentration (EC50) was below 50 nM.
On to `CCC1=C(Cc2ccc(C(F)(F)F)c(C)n2)C(=O)c2c(F)ccc(F)c2C1=O` [Example 139, 2-ethyl-5,8-difluoro-3-((6-methyl-5-(trifluoromethyl)pyridin-2-yl)methyl)naphthalene-1,4-dione], for which the concentration for a half-maximal effect (EC50) was below 50 nM.
Regarding `CCC1=C(Cc2ccc(F)c(C)n2)C(=O)c2c(F)ccc(F)c2C1=O` [Example 140, 2-ethyl-5,8-difluoro-3-((5-fluoro-6-methylpyridin-2-yl)methyl)naphthalene-1,4-dione], the EC50 is below 50 nM.
Same read-out and setting: as for `CCC1=C(Cc2ccc(C(F)(F)C(F)(F)F)cn2)C(=O)c2c(F)ccc(F)c2C1=O` [Example 141, 2-ethyl-5,8-difluoro-3-((5-(perfluoroethyl)pyridin-2-yl)methyl)naphthalene-1,4-dione], the figure is below 50 nM; as for `CCC1=C(Cc2ccc(OC(F)(F)F)cn2)C(=O)c2c(F)cc(F)cc2C1=O` [Example 142, 2-ethyl-5,7-difluoro-3-((5-(trifluoromethoxy)pyridin-2-yl)methyl)naphthalene-1,4-dione], below 50 nM; as for `COc1cnc(CC2=C(C)C(=O)c3ccccc3C2=O)cc1C(F)(F)F` [Example 145, 2-((5-methoxy-4-(trifluoromethyl)pyridin-2-yl)methyl)-3-methylnaphthalene-1,4-dione], below 50 nM.
On to `CCC1=C(Cc2cc(C)c(F)cn2)C(=O)c2ccccc2C1=O` [Example 146, 2-ethyl-3-((5-fluoro-4-methylpyridin-2-yl)methyl)naphthalene-1,4-dione], for which the 50% effective concentration (EC50) is below 50 nM.
On the same count and under the same terms, as for `CCC1=C(Cc2cc(C(F)(F)F)c(OC)cn2)C(=O)c2ccccc2C1=O` [Example 147, 2-ethyl-3-((5-methoxy-4-(trifluoromethyl)141yridine-2-yl)methyl)naphthalene-1,4-dione], the figure is below 50 nM; as for `CCC1=C(Cc2ccc(C(F)(F)C(F)(F)F)cn2)C(=O)c2ccccc2C1=O` [Example 148, 2-ethyl-3-((5-(perfluoroethyl)142yridine-2-yl)methyl)naphthalene-1,4-dione], below 50 nM; as for `CCC1=C(Cc2cc(C(F)(F)F)c(C)cn2)C(=O)c2ccccc2C1=O` [Example 149, 2-ethyl-3-((5-methyl-4-(trifluoromethyl)pyridin-2-yl)methyl)naphthalene-1,4-dione], below 50 nM.
As for `CC1=C(Cc2ccc(C(F)(F)F)c[n+]2[O-])C(=O)c2ccccc2C1=O` [Example 150, 2-((3-methyl-1,4-dioxo-1,4-dihydronaphthalen-2-yl)methyl)-5-(trifluoromethyl)pyridine 1-oxide], the EC50 was below 50 nM.
Take `CCC1=C(Cc2ccc(C(F)(F)F)c(OC)n2)C(=O)c2c(F)ccc(F)c2C1=O` [Example 152, 2-ethyl-5,8-difluoro-3-((6-methoxy-5-(trifluoromethyl)pyridin-2-yl)methyl)naphthalene-1,4-dione]: the EC50 was below 50 nM.
Regarding `CCC1=C(Cc2ccc(C(F)(F)F)c(O)n2)C(=O)c2c(F)ccc(F)c2C1=O` [Example 153, 2-ethyl-5,8-difluoro-3-((6-hydroxy-5-(trifluoromethyl)pyridin-2-yl)methyl)naphthalene-1,4-dione], the EC50 was below 50 nM.

The next experiment concerns Q7 cells (ST HDH Q7/7; immortalized mouse striatal cells). The experiment in a line: Q7 RSL3 challenge cell survival (rescue) assay. Particulars: 18 h, read-out: Q7 RSL3 Survival EC50. In kind it is cell-based.
Source text: as §1, §2, §3
For `CC1=C(Cc2ccc(C(F)(F)F)cn2)C(=O)c2cc(Cl)cc(Cl)c2C1=O` [Example 58, 5,7-dichloro-3-methyl-2-[[5-(trifluoromethyl)-2-pyridyl]methyl]naphthalene-1,4-dione], the EC50 was below 50 nM.

The experiment is the same for the next values; noted with them: Q7 cells, RSL3 2 micromolar, 18 h, Cell Titer Glo, read-out: Q7 RSL3 Survival EC50.
Consider `[2H]C([2H])([2H])C1=C(C([2H])([2H])c2ccc(C(F)(F)F)cn2)C(=O)c2ccccc2C1=O` [Example 22, 2-(methyl-d3)-3-((5-(trifluoromethyl)pyridin-2-yl)methyl-d2)naphthalene-1,4-dione], for which the EC50 is below 50 nM.
As for `CC1=C(Cc2ccc(C(F)(F)F)cn2)C(=O)c2ccc(Cl)cc2C1=O` [Example 59, 6-chloro-3-methyl-2-[[5-(trifluoromethyl)-2-pyridyl]methyl]naphthalene-1,4-dione], the EC50 is below 50 nM.
Regarding `CC1=C(Cc2ccc(C(F)(F)F)cn2)C(=O)c2cc(F)c(F)cc2C1=O` [Example 78, 6,7-difluoro-2-methyl-3-((5-(trifluoromethyl)pyridin-2-yl)methyl)naphthalene-1,4-dione], the EC50 is below 50 nM.
`CC1=C(Cc2ccc(C(F)(F)F)cn2)C(=O)c2ccc(F)c(F)c2C1=O` [Example 80, 5,6-difluoro-3-methyl-2-((5-(trifluoromethyl)pyridin-2-yl)methyl)naphthalene-1,4-dione]: the EC50 is below 50 nM.
For `CCCC1=C(Cc2ccc(C(F)(F)F)c(C#N)n2)C(=O)c2c(F)ccc(F)c2C1=O` [Example 85, 6-((5,8-difluoro-1,4-dioxo-3-propyl-1,4-dihydronaphthalen-2-yl)methyl)-3-(trifluoromethyl)picolinonitrile], the EC50 is below 50 nM.

The test system is the same in the next experiment. The experiment in a line: Q7 Cystine Deprivation cell survival (rescue) assay. It counts as cell-based. Conditions: Q7 cells, cystine-free medium, 18 h, Cell Titer Glo, 50% relative viability vs Vitamin K2 (1 micromolar), read-out: Q7 Cystine Deprivation Survival EC50.
Source text: as §1, §2, §3
Turning to `CC1=C(Cc2ccc(C(F)(F)F)cn2)C(=O)c2cc(C)ccc2C1=O` [Example 42, 2,6-dimethyl-3-((5-(trifluoromethyl)pyridin-2-yl)methyl)naphthalene-1,4-dione], the EC50 was below 50 nM.
`CC1=C(Cc2ccc(C(F)(F)F)cn2)C(=O)c2ccc(F)cc2C1=O` [Example 44, 6-fluoro-3-methyl-2-((5-(trifluoromethyl)pyridin-2-yl)methyl)naphthalene-1,4-dione]: the EC50 was below 50 nM.
